The values below come from US20220226322A1, “METHODS OF TREATING VIRALLY ASSOCIATED CANCERS WITH HISTONE DEACETYLASE INHIBITORS” (priority 2019, published 2022).

For series [1] the following is noted: in vivo; cited from earlier work.
For series [2], the system named is P3HR1 Burkitt's lymphoma cells. Kind of series: Cell death by 7AAD staining after Nstat, washout, then ganciclovir. The protocol:
P3HR1 Burkitt's lymphoma cells were incubated with DMSO (solvent control) or Nstat for 3 days. After that time cell cultures were washed re-fed with ganciclovir (GCV) for an additional 3 days. All test conditions were run in triplicate. Cell death was measured by 7AAD staining.

The test system of series [3] is Histone 3 acetylation in peripheral blood mononuclear cells. As to the kind of experiment: H3 acetylation in peripheral blood mononuclear cells of healthy donors (flow cytometry). It counts as cell-based, human. The text has this: Percentage of cells with H3 acetylation, as determined by flow cytometry, is shown.
Since H3 acetylation is a pharmacodynamic biomarker of Nstat activity, acetylation of H3 was examined in treated cells.
In general terms: A flow cytometer gives signals particle by particle.

A further series concerns the target HDAC1 (Homo sapiens, UniProt Q13547). As to the kind of experiment: HDAC activity assay (fluorescence). It counts as biochemical. The following applies: HDAC1, 10 μM HDAC Substrate 3. On the procedure:
(§1) Briefly, all of the compounds are dissolved in DMSO. A series of dilutions of the compounds were prepared with 10% DMSO in HDAC assay buffer and 5 μl of the dilution was added to a 50 μl reaction so that the final concentration of DMSO is 1% in all of reactions. The compounds were pre-incubated in duplicate at RT for 1 hour in a mixture containing HDAC assay buffer, 5 μg BSA, HDAC enzyme (see Table 7) and a the particular HDACi. After 1 hour, the enzymatic reactions were initiated by the addition of HDAC substrate (BPS Bioscience) to a final concentration of 10 μM or 2 μM. The enzymatic reaction proceeded for 30 minutes at 37° C.
(§2) HDAC activity assays were performed in duplicates at each concentration. The fluorescent intensity data were analyzed using the computer software, Graphpad Prism. In the absence of the compound, the fluorescent intensity (Ft) in each data set was defined as 100% activity. In the absence of HDAC, the fluorescent intensity (Fb) in each data set was defined as 0% activity. The percent activity in the presence of each compound was calculated according to the following equation: % activity=(F−Fb)/(Ft−Fb), where F=the fluorescent intensity in the presence of the compound. […]

The target in another series is HDAC3/NCOR2 (Homo sapiens, UniProt O15379). Kind of series: HDAC activity assay (fluorescence). It counts as biochemical. To be noted: HDAC3/NCOR2, 10 μM HDAC Substrate 3. The protocol:
as §1, §2

A further series concerns the target HDAC2 (Homo sapiens, UniProt Q92769). It counts as biochemical. To be noted: HDAC2, 10 μM HDAC Substrate 3. On the procedure:
as §1, §2

A further series deals with T1, HDAC6 (Homo sapiens, UniProt Q9UBN7).
T1 sequence (Q9UBN7 1-1215): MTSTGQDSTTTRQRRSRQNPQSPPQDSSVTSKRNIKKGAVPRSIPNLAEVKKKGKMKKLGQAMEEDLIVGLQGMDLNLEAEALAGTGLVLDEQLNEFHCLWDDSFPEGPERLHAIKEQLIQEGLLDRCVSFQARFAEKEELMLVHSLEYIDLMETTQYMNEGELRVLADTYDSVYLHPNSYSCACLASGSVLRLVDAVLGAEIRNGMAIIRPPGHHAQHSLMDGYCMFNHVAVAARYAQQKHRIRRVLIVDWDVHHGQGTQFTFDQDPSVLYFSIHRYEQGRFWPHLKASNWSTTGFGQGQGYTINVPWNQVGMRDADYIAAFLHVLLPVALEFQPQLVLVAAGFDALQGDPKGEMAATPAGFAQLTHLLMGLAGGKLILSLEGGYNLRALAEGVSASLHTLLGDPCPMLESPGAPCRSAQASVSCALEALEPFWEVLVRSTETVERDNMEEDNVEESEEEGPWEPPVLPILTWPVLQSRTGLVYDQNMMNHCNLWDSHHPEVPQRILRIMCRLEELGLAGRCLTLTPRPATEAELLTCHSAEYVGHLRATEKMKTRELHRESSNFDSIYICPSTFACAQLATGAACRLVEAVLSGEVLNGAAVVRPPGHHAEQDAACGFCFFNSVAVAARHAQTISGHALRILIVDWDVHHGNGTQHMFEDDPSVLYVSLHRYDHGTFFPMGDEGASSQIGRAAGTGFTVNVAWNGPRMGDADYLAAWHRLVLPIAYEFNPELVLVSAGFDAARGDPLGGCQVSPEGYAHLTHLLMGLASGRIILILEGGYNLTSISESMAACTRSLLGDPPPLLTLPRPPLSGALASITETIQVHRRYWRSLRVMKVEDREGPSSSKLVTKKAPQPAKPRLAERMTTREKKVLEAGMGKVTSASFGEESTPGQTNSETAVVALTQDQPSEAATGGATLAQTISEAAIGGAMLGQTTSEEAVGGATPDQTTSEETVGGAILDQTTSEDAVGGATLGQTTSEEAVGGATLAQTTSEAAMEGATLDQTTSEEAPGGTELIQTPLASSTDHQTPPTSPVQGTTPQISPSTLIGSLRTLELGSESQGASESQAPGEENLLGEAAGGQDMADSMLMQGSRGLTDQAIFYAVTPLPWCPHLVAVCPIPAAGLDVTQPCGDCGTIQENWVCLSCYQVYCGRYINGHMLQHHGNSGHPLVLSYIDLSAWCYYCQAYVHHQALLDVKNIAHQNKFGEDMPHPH
The following applies: HDAC6, 10 μM HDAC Substrate 3. On the procedure:
as §1, §2

Series [4] in a line: Single dose pharmacokinetics of VRx-3996 in patients given oral nanatinostat and valganciclovir. It counts as in vivo, humans. To be noted: Treatment C = 10 mg VRx-3996 p.o. and 900 mg Valganciclovir p.o., N 4.

Chain of HDAC1 (Q13547 whole entry): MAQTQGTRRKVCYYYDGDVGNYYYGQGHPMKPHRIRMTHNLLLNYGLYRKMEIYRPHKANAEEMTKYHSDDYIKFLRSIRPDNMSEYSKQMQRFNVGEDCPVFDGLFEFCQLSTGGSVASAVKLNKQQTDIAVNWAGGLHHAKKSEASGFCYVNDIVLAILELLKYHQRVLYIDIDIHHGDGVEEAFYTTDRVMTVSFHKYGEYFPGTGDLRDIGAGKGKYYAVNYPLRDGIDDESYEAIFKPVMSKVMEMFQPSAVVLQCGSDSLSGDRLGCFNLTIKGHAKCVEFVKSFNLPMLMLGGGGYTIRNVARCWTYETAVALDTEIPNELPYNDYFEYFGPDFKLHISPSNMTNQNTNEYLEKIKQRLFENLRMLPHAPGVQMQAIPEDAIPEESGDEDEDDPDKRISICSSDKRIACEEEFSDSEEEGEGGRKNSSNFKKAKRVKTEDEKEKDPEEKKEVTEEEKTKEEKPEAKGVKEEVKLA
Chain of HDAC2 (Q92769 whole entry): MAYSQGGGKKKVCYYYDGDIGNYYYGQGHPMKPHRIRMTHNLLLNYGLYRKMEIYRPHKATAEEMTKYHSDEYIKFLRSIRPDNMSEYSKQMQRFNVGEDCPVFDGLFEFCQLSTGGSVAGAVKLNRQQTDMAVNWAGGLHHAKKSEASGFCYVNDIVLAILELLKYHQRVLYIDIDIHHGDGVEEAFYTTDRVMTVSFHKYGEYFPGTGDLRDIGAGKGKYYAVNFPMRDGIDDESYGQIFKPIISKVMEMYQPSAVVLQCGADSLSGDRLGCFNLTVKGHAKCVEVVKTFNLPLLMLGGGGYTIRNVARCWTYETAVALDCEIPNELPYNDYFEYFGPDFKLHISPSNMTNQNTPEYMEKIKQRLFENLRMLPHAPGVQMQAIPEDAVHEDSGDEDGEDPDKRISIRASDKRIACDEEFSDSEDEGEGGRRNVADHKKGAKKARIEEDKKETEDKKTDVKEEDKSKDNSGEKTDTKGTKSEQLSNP
Chain of HDAC3/NCOR2 (O15379 whole entry): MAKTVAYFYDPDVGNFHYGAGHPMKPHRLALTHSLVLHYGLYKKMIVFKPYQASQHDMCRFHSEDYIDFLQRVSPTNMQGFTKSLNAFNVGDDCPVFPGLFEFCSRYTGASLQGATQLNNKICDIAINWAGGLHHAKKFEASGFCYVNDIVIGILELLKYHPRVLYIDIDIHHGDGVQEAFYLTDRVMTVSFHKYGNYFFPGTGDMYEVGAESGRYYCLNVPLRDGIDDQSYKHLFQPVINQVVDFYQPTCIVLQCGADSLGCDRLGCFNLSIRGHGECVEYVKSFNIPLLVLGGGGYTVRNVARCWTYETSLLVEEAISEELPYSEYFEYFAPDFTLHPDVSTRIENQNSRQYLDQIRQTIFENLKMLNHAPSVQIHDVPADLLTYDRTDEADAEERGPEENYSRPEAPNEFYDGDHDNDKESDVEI
Chain of HDAC3/NCOR2 (Q9Y618 395-489 partner limits assumed): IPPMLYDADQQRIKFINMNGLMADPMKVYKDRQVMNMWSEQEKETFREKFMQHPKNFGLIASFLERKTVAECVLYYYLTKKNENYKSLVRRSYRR

Consider `Nc1ccccc1NC(=O)c1ccc(CNC(=O)OCc2cccnc2)cc1` [MS-275, entinostat], for which the elimination half-life entry in series [1] is “approximately 36 hours”.
Broadly, the IC50 is the concentration that gives 50% inhibition. Read a high IC50 as weaker potency. Regarding `O=C(NO)c1cnc(N2C[C@@H]3[C@H](C2)[C@H]3NCc2ccc3cc(F)ccc3n2)nc1` [Nstat, 2-((1R,5S,6s)-6-(((6-fluoroquinolin-2-yl)methyl)amino)-3-azabicyclo[3.1.0]hexan-3-yl)-N-hydroxypyrimidine-5-carboxamide], the “increase of cytotoxic activity when combined with Ganciclovir” value in series [2] is listed as about 40%. The “cell cytotoxicity when combined with ganciclovir” value in series [2] (EBV infected cell line P3HR1, effect seen even after Nstat removal) is “increases cell cytotoxicity”. Moreover, in series [3] (PBMC from healthy donors, doses down to 10 nM, FIG. 3), the “duration of effect on H3 acetylation” value is reported as “long-lasting”. Further, in series [3] (PBMC of healthy volunteers, even at a dose of 100 nM, FIG. 2), the “potency in inducing elevated levels of Histone 3 acetylation” value is “much more potent than entinostat”. The IC50 against HDAC1 came to 3.6 nM; against HDAC3/NCOR2, 12 nM; at HDAC2, 12 nM; at HDAC6, 450 nM. For the same molecule, the “AUC, geometric mean” value in series [4] amounted to 322 ng·h/mL.
